Counter-ions that a name gives are not always drawn. Like-named read-outs stand apart in the source and are kept apart here.

For series [1] the following is noted: cited from earlier work; for Solubility: previous reports.
A short description of series [2]: Solubilization of octenidine hydrochloride in solvents (homogeneous solution). Type of series: physicochemical. To be noted: for Homogeneous solution: 10% (w/w), room temperature 20-25° C. On the procedure:
Previous reports have shown that octenidine hydrochloride is soluble in both propylene glycol and ethylhexylglycerine, both of which are diol solvents. Hydrogen-bonding solvents with different functionalities were tested for their ability to solvate octenidine hydrochloride. Each solvent was combined with octenidine hydrochloride at 10% (w/w) with mixing at room temperature, i.e., 20-25° C. In some cases, sonication and/or heat were added to hasten dissolution.

The conditions of series [3]: higher than chlorhexidine; cited from earlier work.

`N=C(NCCCCCCNC(=N)NC(=N)Nc1ccc(Cl)cc1)NC(=N)Nc1ccc(Cl)cc1.O=C(O)[C@H](O)[C@@H](O)[C@H](O)[C@H](O)CO.O=C(O)[C@H](O)[C@@H](O)[C@H](O)[C@H](O)CO` [chlorhexidine gluconate, Chlorhexidine digluconate]: the Homogenous solution formation result in series [1] (in glycol fatty monoesters, known) is given as “do not form homogenous solutions”.
As for `CCCCCCCCN=c1ccn(CCCCCCCCCCn2ccc(=NCCCCCCCC)cc2)cc1` [octenidine hydrochloride, Octenidine hydrochloride], the Homogeneous solution result is on record as “No” in series [2] (in 2-octyldodecanol); “Yes” in series [2] (in glycerol monocaprylate); “Yes” in series [2] (in glycerol monoisostearate); “Yes” in series [2] (in lauramide diethanolamine); “Yes” in series [2] (in methoxyisopropanol); “No” in series [2] (in propylene glycol dicaprylate/caprate). For the same molecule, the Homogeneous solution entry in series [2] (in propylene glycol monoheptanoate), in series [2] (in propylene glycol monolaurate) and in series [2] (in propylene glycol) was “Yes” throughout. For the same molecule, the Solubility entry is reported as “soluble” in series [2] (in glycol fatty monoesters); “insoluble” in series [2] (in the glycol fatty diester); “insoluble” in series [2] (in the monohydric alcohol); “soluble” in series [1] (in ethylhexylglycerine); “soluble” in series [1] (in propylene glycol). For the same molecule, the “Antimicrobial efficacy relative to chlorhexidine” value in series [3] is 3-10 times.
